The target of experiment [1] is hGYS1 enzyme (recombinant hGYS1/GN1 protein) (Homo sapiens (Human), UniProt P13807). Briefly: GYS1 coupled enzyme assay (PK/LDH). Type of experiment: biochemical. As to conditions: hGYS1/GN1 50 nM, UDP-Glucose 0.8 mM, G6P 1 mM; geometric mean of at least 2 runs.
In experiment [2] the target is hGYS2 enzyme (recombinant hGYS2/GN1 protein) (Homo sapiens (Human), UniProt P54840). Briefly: GYS2 coupled enzyme assay (PK/LDH). It counts as biochemical. As to conditions: geometric mean of at least 2 assay runs on separate days, read-out: Avg_IC50. In short, it runs like this: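 Read-out: NADH loss at 340 nm, read each minute for 10 min, slope normalized to controls, duplicate % inhibition fit to Hill (0–100). Enzyme: 200 nM hGYS2/GN1; substrate 2 mM UDP-glucose plus 0.2% glycogen and 2 mM G6P; pH 7.5 Tris, 2.5% DMSO.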
hGYS2 enzyme (recombinant hGYS2/GN1 protein), sequence (P54840 whole entry): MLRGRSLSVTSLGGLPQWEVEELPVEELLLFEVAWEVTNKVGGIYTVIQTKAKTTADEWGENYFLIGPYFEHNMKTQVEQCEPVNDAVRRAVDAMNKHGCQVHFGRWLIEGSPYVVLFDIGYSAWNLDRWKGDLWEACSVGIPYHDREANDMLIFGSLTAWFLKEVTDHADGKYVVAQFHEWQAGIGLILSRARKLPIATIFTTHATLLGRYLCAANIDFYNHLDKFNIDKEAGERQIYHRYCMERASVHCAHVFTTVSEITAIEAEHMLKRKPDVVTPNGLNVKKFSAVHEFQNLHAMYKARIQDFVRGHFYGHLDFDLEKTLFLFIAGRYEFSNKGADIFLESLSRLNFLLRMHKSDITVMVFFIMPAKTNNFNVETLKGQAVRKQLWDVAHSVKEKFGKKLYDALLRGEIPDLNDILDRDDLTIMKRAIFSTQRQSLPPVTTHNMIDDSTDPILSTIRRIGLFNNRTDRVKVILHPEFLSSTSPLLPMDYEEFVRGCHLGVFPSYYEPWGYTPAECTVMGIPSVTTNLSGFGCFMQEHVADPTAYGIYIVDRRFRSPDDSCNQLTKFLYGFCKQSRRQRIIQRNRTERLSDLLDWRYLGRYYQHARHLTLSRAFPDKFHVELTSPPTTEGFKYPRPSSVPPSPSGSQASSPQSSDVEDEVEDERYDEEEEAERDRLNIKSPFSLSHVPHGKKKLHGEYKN
hGYS2 enzyme (recombinant hGYS2/GN1 protein), sequence (P46976 whole entry partner): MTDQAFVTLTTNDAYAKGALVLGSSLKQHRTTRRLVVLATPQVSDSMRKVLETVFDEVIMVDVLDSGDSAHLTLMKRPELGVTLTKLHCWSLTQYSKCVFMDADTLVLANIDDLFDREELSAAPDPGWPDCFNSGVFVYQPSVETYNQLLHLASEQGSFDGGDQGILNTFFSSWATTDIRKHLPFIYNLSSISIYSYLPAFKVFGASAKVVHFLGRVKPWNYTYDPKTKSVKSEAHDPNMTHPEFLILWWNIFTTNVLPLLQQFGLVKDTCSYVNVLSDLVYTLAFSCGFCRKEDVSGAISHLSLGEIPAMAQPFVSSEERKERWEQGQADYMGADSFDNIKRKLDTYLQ

hGYS1 enzyme (recombinant hGYS1/GN1 protein), sequence (P13807 whole entry): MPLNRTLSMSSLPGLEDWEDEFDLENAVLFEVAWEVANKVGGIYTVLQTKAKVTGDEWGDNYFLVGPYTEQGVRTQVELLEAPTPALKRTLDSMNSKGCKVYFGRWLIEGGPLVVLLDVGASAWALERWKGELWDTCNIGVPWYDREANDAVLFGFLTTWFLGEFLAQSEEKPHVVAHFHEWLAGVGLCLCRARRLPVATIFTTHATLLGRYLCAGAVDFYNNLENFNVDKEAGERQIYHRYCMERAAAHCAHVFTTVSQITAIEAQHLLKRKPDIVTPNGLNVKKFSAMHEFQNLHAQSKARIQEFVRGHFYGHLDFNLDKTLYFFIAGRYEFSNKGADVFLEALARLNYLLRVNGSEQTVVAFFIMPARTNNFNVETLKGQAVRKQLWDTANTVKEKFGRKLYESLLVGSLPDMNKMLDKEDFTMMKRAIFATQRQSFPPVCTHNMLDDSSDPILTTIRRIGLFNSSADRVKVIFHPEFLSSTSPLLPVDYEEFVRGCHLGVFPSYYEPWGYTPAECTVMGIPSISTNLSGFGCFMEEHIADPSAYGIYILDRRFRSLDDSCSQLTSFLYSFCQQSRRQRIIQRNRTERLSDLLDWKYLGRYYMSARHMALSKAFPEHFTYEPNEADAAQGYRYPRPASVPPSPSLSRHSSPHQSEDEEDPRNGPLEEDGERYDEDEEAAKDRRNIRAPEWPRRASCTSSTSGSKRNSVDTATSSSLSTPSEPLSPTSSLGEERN
hGYS1 enzyme (recombinant hGYS1/GN1 protein), sequence (P46976 whole entry partner): as the sequence (P46976 whole entry partner) above

For `Cc1cc(CC(=O)N2C[C@H](F)C[C@H]2C(=O)N[C@@H](c2ccccc2)c2ccc(C(C)C)cc2)nn1C` [Compound 83, (2S,4R)-1-[2-(1,5-dimethyl-1H-pyrazol-3-yl)acetyl]-4-fluoro-N-[(S)-phenyl[4-(propan-2-yl)phenyl]methyl]pyrrolidine-2-carboxamide], the IC50 in experiment [1] is 15 nM; in experiment [2] it was over 100000 nM.

`Cc1n[nH]c(C)c1CC(=O)N1C[C@H](F)C[C@H]1C(=O)N[C@@H](c1ccccc1)c1ccc(C(C)C)cc1` [Compound 84, (2S,4R)-1-[2-(3,5-dimethyl-1H-pyrazol-4-yl)acetyl]-4-fluoro-N-[(S)-phenyl[4-(propan-2-yl)phenyl]methyl]pyrrolidine-2-carboxamide]: the IC50 in experiment [1] was 10 nM; in experiment [2], over 100000 nM.

Consider `CC(C)c1ccc([C@@H](NC(=O)[C@@H]2C[C@@H](F)CN2C(=O)CN2CCCCC2=O)c2ccccc2)cc1` [Compound 85, (2S,4R)-4-fluoro-1-[2-(2-oxopiperidin-1-yl)acetyl]-N-[(S)-phenyl[4-(propan-2-yl)phenyl]methyl]pyrrolidine-2-carboxamide], for which the IC50 in experiment [1] was 154 nM; in experiment [2] it was over 100000 nM.

Regarding `CC(C)c1ccc([C@@H](NC(=O)[C@@H]2C[C@@H](F)CN2C(=O)Cc2c[nH]c3ccccc23)c2ccccc2)cc1` [Compound 86, (2S,4R)-4-fluoro-1-[2-(1H-indol-3-yl)acetyl]-N-[(S)-phenyl[4-(propan-2-yl)phenyl]methyl]pyrrolidine-2-carboxamide], the IC50 in experiment [1] was 12 nM; in experiment [2], over 100000 nM.

With `CC(C)c1ccc([C@@H](NC(=O)[C@@H]2C[C@@H](F)CN2C(=O)Cc2noc(C(C)C)n2)c2ccccc2)cc1` [Compound 87, (2S,4R)-4-fluoro-N-[(S)-phenyl[4-(propan-2-yl)phenyl]methyl]-1-{2-[5-(propan-2-yl)-1,2,4-oxadiazol-3-yl]acetyl}pyrrolidine-2-carboxamide], the IC50 in experiment [1] is 28 nM; in experiment [2] it was over 100000 nM.

In the case of `COc1ccc(CC(=O)N2C[C@H](F)C[C@H]2C(=O)N[C@@H](c2ccccc2)c2ccc(C(C)C)cc2)cc1` [Compound 88, (2S,4R)-4-fluoro-1-[2-(4-methoxyphenyl)acetyl]-N-[(S)-phenyl[4-(propan-2-yl)phenyl]methyl]pyrrolidine-2-carboxamide], the IC50 in experiment [1] was 49 nM; in experiment [2], over 100000 nM.

With `COc1ccc(CC(=O)N2C[C@H](F)C[C@H]2C(=O)N[C@@H](c2ccccc2)c2ccc(C(C)C)cc2)cc1F` [Compound 89, (2S,4R)-4-fluoro-1-[2-(3-fluoro-4-methoxyphenyl)acetyl]-N-[(S)-phenyl[4-(propan-2-yl)phenyl]methyl]pyrrolidine-2-carboxamide], the values for the IC50 in experiment [1] and in experiment [2] were 60 nM and over 100000 nM, respectively.

With `COc1ccc(F)cc1CC(=O)N1C[C@H](F)C[C@H]1C(=O)N[C@@H](c1ccccc1)c1ccc(C(C)C)cc1` [Compound 90, (2S,4R)-4-fluoro-1-[2-(5-fluoro-2-methoxyphenyl)acetyl]-N-[(S)-phenyl[4-(propan-2-yl)phenyl]methyl]pyrrolidine-2-carboxamide], the IC50 was 32 nM in experiment [1] and over 100000 nM in experiment [2].

Consider `Cc1ccccc1OCC(=O)N1C[C@H](F)C[C@H]1C(=O)N[C@@H](c1ccccc1)c1ccc(C(C)C)cc1` [Compound 91, (2S,4R)-4-fluoro-1-[2-(2-methylphenoxy)acetyl]-N-[(S)-phenyl[4-(propan-2-yl)phenyl]methyl]pyrrolidine-2-carboxamide], for which the IC50 in experiment [1] is 47 nM; in experiment [2] it was over 100000 nM.

In the case of `CC(C)c1ccc([C@@H](NC(=O)[C@@H]2C[C@@H](F)CN2C(=O)C2CCNC(=O)C2)c2ccccc2)cc1` (stereo partly drawn) [Compound 93, (2S,4R)-4-fluoro-1-(2-oxopiperidin-4-carbonyl)-N-[(S)-phenyl[4-(propan-2-yl)phenyl]methyl]pyrrolidine-2-carboxamide], the IC50 in experiment [1] was 108 nM; in experiment [2], over 100000 nM.

In the case of `CC(C)c1ccc([C@@H](NC(=O)[C@@H]2C[C@@H](F)CN2C(=O)CCCc2cccnc2)c2ccccc2)cc1` [Compound 94, (2S,4R)-4-fluoro-N-[(S)-phenyl[4-(propan-2-yl)phenyl]methyl]-1-[4-(pyridin-3-yl)butanoyl]pyrrolidine-2-carboxamide], the IC50 in experiment [1] is 188 nM; in experiment [2], over 100000 nM.

As for `CC(C)c1ccc([C@@H](NC(=O)[C@@H]2C[C@@H](F)CN2C(=O)CCCc2ccncc2)c2ccccc2)cc1` [Compound 95, (2S,4R)-4-fluoro-N-[(S)-phenyl[4-(propan-2-yl)phenyl]methyl]-1-[4-(pyridin-4-yl)butanoyl]pyrrolidine-2-carboxamide], the figures for the IC50 in experiment [1] and in experiment [2] were 130 nM and over 100000 nM, respectively.

Regarding `CC(C)c1ccc([C@@H](NC(=O)[C@@H]2C[C@@H](F)CN2C(=O)Cc2ccc3ncccc3c2)c2ccccc2)cc1` [Compound 96, (2S,4R)-4-fluoro-N-[(S)-phenyl[4-(propan-2-yl)phenyl]methyl]-1-[2-(quinolin-6-yl)acetyl]pyrrolidine-2-carboxamide], the IC50 was 21 nM in experiment [1] and over 100000 nM in experiment [2].

For the compound `CC(Cc1ccncc1)C(=O)N1C[C@H](F)C[C@H]1C(=O)N[C@@H](c1ccccc1)c1ccc(C(C)C)cc1` (stereo partly drawn) [Compound 98, (2S,4R)-4-fluoro-1-[2-methyl-3-(pyridin-4-yl)propanoyl]-N-[(S)-phenyl[4-(propan-2-yl)phenyl]methyl]pyrrolidine-2-carboxamide], the IC50 in experiment [1] was 244 nM; in experiment [2] it was over 100000 nM.

Turning to `Cc1cc(CCC(=O)N2C[C@H](F)C[C@H]2C(=O)N[C@@H](c2ccccc2)c2ccc(C(C)C)cc2)ccn1` [Compound 99, (2S,4R)-4-fluoro-1-[3-(2-methylpyridin-4-yl)propanoyl]-N-[(S)-phenyl[4-(propan-2-yl)phenyl]methyl]pyrrolidine-2-carboxamide], the IC50 in experiment [1] was 65 nM; in experiment [2], over 100000 nM.

As to `Cc1ccc(CCC(=O)N2C[C@H](F)C[C@H]2C(=O)N[C@@H](c2ccccc2)c2ccc(C(C)C)cc2)cn1` [Compound 100, (2S,4R)-4-fluoro-1-[3-(6-methylpyridin-3-yl)propanoyl]-N-[(S)-phenyl[4-(propan-2-yl)phenyl]methyl]pyrrolidine-2-carboxamide], the results for the IC50 in experiment [1] and in experiment [2] were 73 nM and over 100000 nM, respectively.

As to `Cc1ccc(CCC(=O)N2C[C@H](F)C[C@H]2C(=O)N[C@@H](c2ccccc2)c2ccc(C(C)C)cc2)nc1` [Compound 101, (2S,4R)-4-fluoro-1-[3-(5-methylpyridin-2-yl)propanoyl]-N-[(S)-phenyl[4-(propan-2-yl)phenyl]methyl]pyrrolidine-2-carboxamide], the IC50 in experiment [1] is 54 nM; in experiment [2], over 100000 nM.

As for `Cc1ncccc1CCC(=O)N1C[C@H](F)C[C@H]1C(=O)N[C@@H](c1ccccc1)c1ccc(C(C)C)cc1` [Compound 102, (2S,4R)-4-fluoro-1-[3-(2-methylpyridin-3-yl)propanoyl]-N-[(S)-phenyl[4-(propan-2-yl)phenyl]methyl]pyrrolidine-2-carboxamide], the values for the IC50 in experiment [1] and in experiment [2] were 58 nM and over 100000 nM, respectively.

`Cc1noc(C)c1CCC(=O)N1C[C@H](F)C[C@H]1C(=O)N[C@@H](c1ccccc1)c1ccc(C(C)C)cc1` [Compound 103, (2S,4R)-1-[3-(3,5-dimethyl-1,2-oxazol-4-yl)propanoyl]-4-fluoro-N-[(S)-phenyl[4-(propan-2-yl)phenyl]methyl]pyrrolidine-2-carboxamide]: the results for the IC50 in experiment [1] and in experiment [2] were 162 nM and over 100000 nM, respectively.

With `CC(C)c1ccc([C@@H](NC(=O)[C@@H]2C[C@@H](F)CN2C(=O)CCc2c[nH]c3ncccc23)c2ccccc2)cc1` [Compound 104, (2S,4R)-4-fluoro-N-[(S)-phenyl[4-(propan-2-yl)phenyl]methyl]-1-(3-{1H-pyrrolo[2,3-b]pyridin-3-yl}propanoyl)pyrrolidine-2-carboxamide], the IC50 in experiment [1] was 61 nM; in experiment [2], over 100000 nM.

Take `Cc1nccn1CCCC(=O)N1C[C@H](F)C[C@H]1C(=O)N[C@@H](c1ccccc1)c1ccc(C(C)C)cc1` [Compound 105, (2S,4R)-4-fluoro-1-[4-(2-methyl-1H-imidazol-1-yl)butanoyl]-N-[(S)-phenyl[4-(propan-2-yl)phenyl]methyl]pyrrolidine-2-carboxamide]: the figures for the IC50 in experiment [1] and in experiment [2] were 249 nM and over 100000 nM, respectively.

For `Cc1cc(C)n(CCC(=O)N2C[C@H](F)C[C@H]2C(=O)N[C@@H](c2ccccc2)c2ccc(C(C)C)cc2)n1` [Compound 106, (2S,4R)-1-[3-(3,5-dimethyl-1H-pyrazol-1-yl)propanoyl]-4-fluoro-N-[(S)-phenyl[4-(propan-2-yl)phenyl]methyl]pyrrolidine-2-carboxamide], the values for the IC50 in experiment [1] and in experiment [2] were 186 nM and over 100000 nM, respectively.

Turning to `CC(=O)Nc1ccc(CC(=O)N2C[C@H](F)C[C@H]2C(=O)N[C@@H](c2ccccc2)c2ccc(C(C)C)cc2)cc1` [Compound 107, (2S,4R)-1-[2-(4-acetamidophenyl)acetyl]-4-fluoro-N-[(S)-phenyl[4-(propan-2-yl)phenyl]methyl]pyrrolidine-2-carboxamide], the IC50 in experiment [1] was 19 nM; in experiment [2], over 100000 nM.

As to `CC(C)c1ccc([C@@H](NC(=O)[C@@H]2C[C@@H](F)CN2C(=O)CCC(=O)N2CCCC2)c2ccccc2)cc1` [Compound 108, (2S,4R)-4-fluoro-1-[4-oxo-4-(pyrrolidin-1-yl)butanoyl]-N-[(S)-phenyl[4-(propan-2-yl)phenyl]methyl]pyrrolidine-2-carboxamide], the IC50 in experiment [1] was 77 nM; in experiment [2] it was over 100000 nM.
